Experimental findings from ChEMBL document CHEMBL1124209, “Phosphonoformate and phosphonoacetate derivatives of 5-substituted 2'-deoxyuridines: synthesis and antiviral activity” (1988) are described below.

Values after ≈ are worked out from the molar mass of the structure shown.

Holding throughout (type): functional
The subject of experiment [1] is Human alphaherpesvirus 2. As to the kind of experiment: Minimum inhibitory concentration causing 25% inhibition cytopathic effect induced by Herpes simplex virus(HSV) -2 (thymidine kinase deficient) in vero cells.
Experiment [2] concerns Human alphaherpesvirus 1. As to the kind of experiment: Minimum inhibitory concentration causing 25% inhibition of cytopathic effect induced by Herpes simplex virus-1 (K979) in HEp-2 cells.
The test system of experiment [3] is Human alphaherpesvirus 1. As to the kind of experiment: Minimum inhibitory concentration causing 25% inhibition of cytopathic effect induced by herpes simplex virus (HSV)-1 (K979) in vero cells.
The subject of experiment [4] is Human alphaherpesvirus 1. As to the kind of experiment: Minimum inhibitory concentration causing 25% inhibition of cytopathic effect induced by Herpes simplex virus(HSV) -1 (thymidine kinase deficient) in vero cells.
Experiment [5] relates to Human alphaherpesvirus 1. As to the kind of experiment: Minimum inhibitory concentration causing 25% inhibition cytopathic effect induced by Herpes simplex virus(HSV) -1 (thymidine kinase deficient) in HEp-2 cells.
The test system of experiment [6] is Human alphaherpesvirus 1. As to the kind of experiment: Minimum inhibitory concentration causing 25% inhibition of cytopathic effect induced by Herpes simplex virus-1 (Brand) in vero cells.
For experiment [7], the system named is Human alphaherpesvirus 1. As to the kind of experiment: Minimum inhibitory concentration causing 25% inhibition cytopathic effect induced by Herpes simplex virus-1 (Brand) in HEp-2 cells.
Experiment [8] concerns Human alphaherpesvirus 2. As to the kind of experiment: Minimum inhibitory concentration causing 25% inhibition of cytopathic effect induced by Herpes simplex virus(HSV) -2 (thymidine kinase deficient) in HEp-2 cells.
For experiment [9], the species on record is Oryctolagus cuniculus. As to the kind of experiment: Minimum cytotoxic concentration causing toxic effects on uninfected cells in rabbit.
Experiment [10] has as its system Human alphaherpesvirus 1. As to the kind of experiment: Minimum inhibitory concentration causing 25% inhibition of cytopathic effect induced by Herpes simplex virus(HSV) -1 (thymidine kinase deficient) in HEp-2 cells.
For experiment [11], the system named is Human alphaherpesvirus 2. As to the kind of experiment: Minimum inhibitory concentration causing 25% inhibition of cytopathic effect induced by Herpes simplex virus(HSV) -2 (thymidine kinase deficient) in vero cells.
The subject of experiment [12] is Human alphaherpesvirus 1. As to the kind of experiment: Mean survival time in HSV-1 infected mice, after intraperitoneal administration of 0.5 mg/kg of compound.
The test system of experiment [13] is Human alphaherpesvirus 1. As to the kind of experiment: Mean survival time in HSV-1 infected mice, after intraperitoneal administration of 1 mg/kg of compound.
Experiment [14] concerns Human alphaherpesvirus 1. As to the kind of experiment: Mean survival time in HSV-1 infected mice, after intraperitoneal administration of 5 mg/kg of compound.
Experiment [15] concerns Human alphaherpesvirus 1. As to the kind of experiment: Mean survival time in HSV-1 infected mice, after peroral administration of 10 mg/kg of compound. The conditions noted are these: route oral.
The test system of experiment [16] is Human alphaherpesvirus 1. As to the kind of experiment: Mean survival time in HSV-1 infected mice, after peroral administration of 1 mg/kg of compound. The conditions noted are these: route oral.
In experiment [17] the test system is Human alphaherpesvirus 1. As to the kind of experiment: Mean survival time in HSV-1 infected mice, after peroral administration of 5 mg/kg of compound. The conditions noted are these: route oral.
In experiment [18] the test system is Mus musculus. As to the kind of experiment: Cumulative lesions in HSV-1 infected mice, after administration of 0.3 % of compound intracutaneously.
Experiment [19] relates to Mus musculus. As to the kind of experiment: Mean duration of lesions in HSV-1 infected mice, after administration of 0.3 % of compound intracutaneously.
For experiment [20], the system named is Human alphaherpesvirus 1. As to the kind of experiment: Cumulative mortality in percent of HSV-1 infected mice, after intraperitoneal administration of 0.5 mg/kg of compound.
The test system of experiment [21] is Human alphaherpesvirus 1. As to the kind of experiment: Cumulative mortality in percent of HSV-1 infected mice, after intraperitoneal administration of 1 mg/kg of compound.
The subject of experiment [22] is Human alphaherpesvirus 1. As to the kind of experiment: Cumulative mortality in percent of HSV-1 infected mice, after intraperitoneal administration of 5 mg/kg of compound.
In experiment [23] the test system is Human alphaherpesvirus 1. As to the kind of experiment: Cumulative mortality in percent of HSV-1 infected mice, after peroral administration of 1 mg/kg of compound. Particulars: route oral.
Experiment [24] has as its system Human alphaherpesvirus 1. As to the kind of experiment: Cumulative mortality in percent of HSV-1 infected mice, after peroral administration of 5 mg/kg of compound. The conditions noted are these: route oral.
Experiment [25] relates to Human alphaherpesvirus 1. As to the kind of experiment: Cumulative mortality in percent of HSV-1 infected mice, after peroral administration of 10 mg/kg of compound. The conditions noted are these: route oral.
Experiment [26] deals with Mus musculus. As to the kind of experiment: Cumulative lesions in HSV-1 infected mice, after administration of 0.1 % of compound intracutaneously.
Experiment [27] concerns Mus musculus. As to the kind of experiment: Mean duration of lesions in HSV-1 infected mice, after administration of 0.1 % of compound intracutaneously.

As to `CCOC(=O)CP(=O)(OC)OC[C@H]1O[C@@H](n2cc(I)c(=O)[nH]c2=O)C[C@@H]1O` (stereo partly drawn), the MIC in experiment [1] was over 193 µM; in experiment [2], 57.9 µM (≈ 30 µg/mL); in [3], 57.9 µM (≈ 30 µg/mL); in experiment [4], 57.9 µM (≈ 30 µg/mL); in experiment [5], 1.9 µM (≈ 0.985 µg/mL); in experiment [6] it was 1.9 µM (≈ 0.985 µg/mL). Further, the MIC in [7] amounted to 5.8 µM (≈ 3.01 µg/mL); in [8], 193 µM (≈ 100 µg/mL). Moreover, the MTC in experiment [9] worked out at 193 µM.

For `O=C(CP(=O)(O)O)O[C@H]1C[C@H](n2cc(CCCl)c(=O)[nH]c2=O)O[C@@H]1CO`, the MIC in [1] is over 242 µM; in experiment [2], 72.7 µM (≈ 30 µg/mL); in experiment [3], 242 µM (≈ 99.9 µg/mL); in [10] it was over 242 µM; in [4], 242 µM (≈ 99.9 µg/mL); in [6], 24.2 µM (≈ 9.99 µg/mL). The MIC was 72.7 µM (≈ 30 µg/mL) in [7] and over 242 µM in experiment [8]. The compound further yielded an MTC in experiment [9] of 800 µM.

For the compound `O=C(CP(=O)(O)O)OC[C@H]1O[C@@H](n2cc(CCCl)c(=O)[nH]c2=O)C[C@@H]1O`, the MIC in [2] is over 242 µM; in experiment [3], over 242 µM; in experiment [10], 242 µM (≈ 99.9 µg/mL); in experiment [4], 72.7 µM (≈ 30 µg/mL); in [6], 24.2 µM (≈ 9.99 µg/mL); in experiment [7], 24.2 µM (≈ 9.99 µg/mL). The MIC in [8] turned out to be 242 µM (≈ 99.9 µg/mL); in experiment [11] it was 72.7 µM (≈ 30 µg/mL). Besides, the MST in experiment [12] was determined as 12.2 days; in [13], 16 days; in experiment [14], 18.3 days; in [15], 16.3 days; in experiment [16] it was 11.8 days; in experiment [17], 15.3 days. This compound also returned a lesions in experiment [18] of 40. The compound further gave an MDL in experiment [19] of 2.4 days. The CMP is reported as 75 in experiment [20]; 33 in [21]; 17 in experiment [22]; 67 in experiment [23]; 50 in experiment [24]; 42 in [25]. For the same compound, the MTC in experiment [9] came to 800 µM.

`CCOC(=O)P(=O)(OC)OC[C@H]1O[C@@H](n2cc(CCCl)c(=O)[nH]c2=O)C[C@@H]1O` (stereo partly drawn): the MIC in experiment [2] was 22.7 µM (≈ 10 µg/mL); in experiment [3] it was 227 µM (≈ 100 µg/mL); in [10] it was over 227 µM; in experiment [4], 68.1 µM (≈ 30 µg/mL); in [6] it was 0.7 µM (≈ 0.309 µg/mL); in experiment [7] it was 0.7 µM (≈ 0.309 µg/mL). Further, the MIC in [8] and in [11] was over 227 µM in each case. Moreover, the MST in experiment [12] is 16.7 days; in experiment [13] it was 15.6 days; in experiment [14], 20 days; in experiment [15] it was 18.9 days; in experiment [16], 13.9 days; in experiment [17], 16 days. Further, the lesions in experiment [26] was 33; in experiment [18] it was 17. For the same compound, the MDL in experiment [27] came to 3.3 days; in experiment [19], 1.4 days. Besides, the CMP in experiment [20] was 33; in experiment [21] it was 42; in experiment [22] it was 0; in [23], 63; in experiment [24], 38; in [25], 13. This compound had an MTC in [9] of 749 µM.

Turning to `COP(=O)(CC(=O)OC[C@H]1O[C@@H](n2cc(CCCl)c(=O)[nH]c2=O)C[C@@H]1O)OC`, the MIC in [1] is over 227 µM; in experiment [2] it was over 227 µM; in [3] it was over 227 µM; in experiment [10] it was over 227 µM; in experiment [4], 227 µM (≈ 100 µg/mL); in [6], 6.8 µM (≈ 3 µg/mL). For the same compound, the values for the MIC in experiment [7] and in experiment [8] were 6.8 µM (≈ 3 µg/mL) and over 227 µM, respectively. The MST in experiment [12] was 13.3 days; in [13] it was 13 days; in experiment [14] it was 19.2 days; in [15] it was 12.2 days; in [16], 13.5 days; in [17] it was 11.2 days. Also, the CMP stood at 67 in [20]; 75 in [21]; 8 in [22]; 58 in experiment [23]; 83 in [24]; 75 in experiment [25]. Also, the MTC in experiment [9] was 749 µM.

Take `O=C(O)CP(=O)(O)OC[C@H]1O[C@@H](n2cc(CCCl)c(=O)[nH]c2=O)C[C@@H]1O`: the MIC is over 232 µM in experiment [1]; 69.6 µM (≈ 28.7 µg/mL) in experiment [2]; 232 µM (≈ 95.8 µg/mL) in experiment [3]; 23.2 µM (≈ 9.58 µg/mL) in experiment [10]; 23.2 µM (≈ 9.58 µg/mL) in [4]; 2.3 µM (≈ 0.949 µg/mL) in [6]. In addition, the values for the MIC in experiment [7] and in experiment [8] were 2.3 µM (≈ 0.949 µg/mL) and 232 µM (≈ 95.8 µg/mL), respectively. Moreover, the MST came out at 14.2 days in [12]; 14.1 days in experiment [13]; 17.3 days in experiment [14]; 15.3 days in experiment [15]; 8.6 days in experiment [16]; 11.2 days in experiment [17]. The lesions in experiment [26] came out at 60. The MDL in experiment [27] worked out at 5.3 days. The CMP in [20] was found to be 50; in experiment [21] it was 58; in experiment [22] it was 25; in experiment [23] it was 100; in [24] it was 92; in experiment [25], 50. Besides, the MTC in experiment [9] was determined as 766 µM.

As to `CCOC(=O)P(=O)(O)OC[C@H]1O[C@@H](n2cc(CCCl)c(=O)[nH]c2=O)C[C@@H]1O`, the MIC in experiment [2] is 234 µM (≈ 99.9 µg/mL); in experiment [3] it was over 234 µM; in experiment [10], over 234 µM; in experiment [4], 70.3 µM (≈ 30 µg/mL); in experiment [6], 23.4 µM (≈ 9.99 µg/mL); in experiment [7], 23.4 µM (≈ 9.99 µg/mL). Besides, the MIC in [8] is over 234 µM; in experiment [11], 234 µM (≈ 99.9 µg/mL). The MST in experiment [12] was determined as 13.8 days; in experiment [13], 16.5 days; in experiment [14] it was 20 days; in experiment [15] it was 15.3 days; in experiment [16] it was 10.1 days; in experiment [17], 11.9 days. The same compound registered a lesions in [26] of 80. The MDL in experiment [27] amounted to 6.7 days. Further, the CMP came to 58 in experiment [20]; 33 in [21]; 0 in experiment [22]; 92 in experiment [23]; 75 in experiment [24]; 50 in experiment [25]. Besides, the MTC result in [9] is given as “>=773 uM”.

With `CCOC(=O)CP(=O)(OC)OC[C@H]1O[C@@H](n2cc(CCCl)c(=O)[nH]c2=O)C[C@@H]1O` (stereo partly drawn), the MIC is over 220 µM in experiment [2]; over 220 µM in [3]; over 220 µM in [10]; 66 µM (≈ 30 µg/mL) in experiment [4]; 6.6 µM (≈ 3 µg/mL) in experiment [6]; 66 µM (≈ 30 µg/mL) in experiment [7]. Also, the MIC in experiment [8] and in experiment [11] was over 220 µM each time. The MST turned out to be 13.9 days in experiment [12]; 11.9 days in experiment [13]; 11.8 days in [14]; 11.5 days in [15]; 8.9 days in experiment [16]; 12.8 days in experiment [17]. The lesions is listed as 83 in experiment [26] and 58 in experiment [18]. Further, the MDL in experiment [27] amounted to 10.6 days; in [19], 6 days. Further, the CMP in [20] was 58; in experiment [21], 92; in experiment [22] it was 83; in experiment [23], 100; in experiment [24] it was 75; in experiment [25], 67. In addition, the MTC in experiment [9] was 726 µM.
